Assay results reported in article PMC9721090 (FASEB BioAdvances, 2022).
Counter-ions that a name gives are not always drawn.

Tests used:
[1] = target: β2AR (Homo sapiens, UniProt P07550); format: binding
[2] = target: β2AR-Gαs (Homo sapiens, UniProt P07550); test: Saturation binding of [3H] DHA, membranes of t β2AR-Gαs HEK 293 cells
[3] = target: T1, β2AR-βarr2 (Homo sapiens, UniProt P07550+P32121); test: Saturation binding of [3H] DHA, membranes of t β2AR-βarr2 HEK 293 cells
[4] = target: T1, β2AR-βarr2; test: ERK1/2 phosphorylation; format: cell-based; settings: t β2AR-βarr2 HEK 293; PTX 100ng/ml overnight

Chain of β2AR (P07550 whole entry): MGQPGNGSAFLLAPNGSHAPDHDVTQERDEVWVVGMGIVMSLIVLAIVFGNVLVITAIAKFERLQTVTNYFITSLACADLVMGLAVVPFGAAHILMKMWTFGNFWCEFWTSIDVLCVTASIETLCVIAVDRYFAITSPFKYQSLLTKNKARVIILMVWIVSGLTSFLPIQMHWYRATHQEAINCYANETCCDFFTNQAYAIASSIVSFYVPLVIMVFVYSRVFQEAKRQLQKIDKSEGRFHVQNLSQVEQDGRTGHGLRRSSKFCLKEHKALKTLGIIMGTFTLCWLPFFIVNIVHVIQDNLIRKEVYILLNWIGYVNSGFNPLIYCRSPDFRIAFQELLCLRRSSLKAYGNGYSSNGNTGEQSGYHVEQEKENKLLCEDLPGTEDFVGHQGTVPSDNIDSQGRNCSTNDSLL

Molecule	Kd [1] [pM]	Kd [2] [pM]	Kd [3] [pM]	effect on constitutive ERK1/2 phosphorylation [4]
CCCc1ccccc1OC[C@@H](O)CNC(C)C [[3H] dihydroalprenolol, Dihydroalprenolol hydrochloride, levo‐[ring, propyl‐^3H(N)]‐]	148 ± 28	213 ± 49	233 ± 22	
pertussis toxin				no effect
